Our source for the zone of inhibition, IC50 and Solubility in solvent values is patent US20060014825A1, “Novel k99-5278 substance and a process for producing the same” (priority 2002, published 2006).

Series [1] relates to Aspergillus niger KF103 (ATCC 6275). Description: Antifungal activity by paper disc method. The class given is cell-based. Particulars: ATCC6275, 10 μg, GY agar medium, 27° C. for 24 hours. As for the experimental part: (§1) Biological properties of K99-5278 substance of the present invention are explained in detail hereinbelow. • (1) Assays of antifungal activities by paper disc method (filter paper disc method)
(§2) Antifungal activities of K99-5278 substance were performed using Aspergillus niger KF103 (ATCC 6275), Mucor racemosus KF223 (IFO 4581), Candida albicans KF1 and Saccharomyces cerevisiae KF26. Aspergillus niger KF103 (ATCC 6275) and Candida albicans KF1 were inoculated at 0.2%, and Mucor racemosus KF223 (IFO 4581) and Saccharomyces cerevisiae KF26 were inoculated at 0.3% in GY agar medium (glucose 1.0%, yeast extract 0.5%, agar 0.8%, pH 6.0). Activities were evaluated by paper disc method (thickness: 6 mm: Advantec Inc., Japan), and a diameter of the inhibition ring was measured after incubating at 27° C. for 24 hours.

The test system of a further series is Candida albicans KF1. Description: Antifungal activity by paper disc method. The class given is cell-based. To be noted: 10 μg, GY agar medium, 27° C. for 24 hours. As for the experimental part: as §1, §2
The subject of series [2] is Mucor racemosus KF223 (IFO 4581). Description: Antifungal activity by paper disc method. Particulars: IFO4581, 10 μg, GY agar medium, 27° C. for 24 hours. The class given is cell-based. As for the experimental part: as §1, §2
In series [3] the test system is Saccharomyces cerevisiae KF26. Description: Antifungal activity by paper disc method. It is filed as cell-based. Particulars: 10 μg, GY agar medium, 27° C. for 24 hours. As for the experimental part:
as §1, §2

Series [4] concerns Saccharomyces cerevisiae KF26. In words: Antifungal activity by liquid culture method (turbidity at 550 nm). It is filed as cell-based. Particulars: Saccharomyces cerevisiae KF26, liquid medium, 27° C. for 24 hours; read-out: IC50 for growth of the test organism. The method, then: Antifungal activities of K99-5278A substance, K99-5278B substance and K99-5278C substance by the liquid medium were performed as follows. • 1) Saccharomyces cerevisiae KF26 was used as a test organism. Samples dissolved in DMSO were added in the 96 well microplate and the solvent was distilled off in vacuo. Suspension, in which Saccharomyces cerevisiae KF26 0.3% was inoculated in a medium (glucose 1.0% and yeast extract 0.5%, pH 6.0), 200 μl/well was added and incubated at 27° C. for 24 hours. After the incubation, turbidity was measured by using absorption spectrometer with wavelength at 550 nm. Activity was determined by setting the value without drug addition as 100%, and the concentration shown by 50% turbidity was set as IC50.

The next series deals with Aspergillus niger KF103. Described as above. It is filed as cell-based. To be noted: Aspergillus niger KF103, liquid medium, 27° C. for 48 hours; read-out: IC50 for growth of the test organism. As for the experimental part: Samples dissolved in DMSO were added in the 96 well microplate and the solvent was distilled off in vacuo. Suspension, in which Aspergillus niger KF103 0.3% was inoculated in a medium (glucose 1.0% and yeast extract 0.5%, pH 6.0), 200 μl/well was added and incubated at 27° C. for 48 hours. After the incubation, turbidity was measured by using absorption spectrometer with wavelength at 550 nm. Activity was determined by setting the value without drug addition as 100%, and the concentration shown by 50% turbidity was set as IC50.

The subject of the next series is Mucor racemosus KF223. The series is described as above. It is filed as cell-based. Particulars: Mucor racemosus KF223, liquid medium, 27° C. for 24 hours; read-out: IC50 for growth of the test organism. The method, then: Samples dissolved in DMSO were added in the 96 well microplate and the solvent was distilled off in vacuo. Suspension, in which Mucor racemosus KF223 0.3% was inoculated in a medium (glucose 1.0% and yeast extract 0.5%, pH 6.0), 200 μl/well was added and incubated at 27° C. for 24 hours. After the incubation, turbidity was measured by using absorption spectrometer with wavelength at 550 nm. Activity was determined by setting the value without drug addition as 100%, and the concentration shown by 50% turbidity was set as IC50.

Another series deals with Candida albicans KFI. The series is described as above. The class given is cell-based. To be noted: liquid medium, 27° C. for 24 hours, read-out: IC50 for growth of the test organism. As for the experimental part:
Samples dissolved in DMSO were added in the 96 well microplate and the solvent was distilled off in vacuo. Suspension, in which Candida albicans KF1 0.3% was inoculated in a medium (glucose 1.0% and yeast extract 0.5%, pH 6.0), 200 μl/well was added and incubated at 27° C. for 24 hours. After the incubation, turbidity was measured by using absorption spectrometer with wavelength at 550 nm. Activity was determined by setting the value without drug addition as 100%, and the concentration shown by 50% turbidity was set as IC50.

Values after ≈ are worked out from the molar mass of the structure shown.

Regarding `CC(C)C1OC(=O)C(C)C(O)CC(O)CCCC(O)CC(O)CC(O)C(C)C(O)/C=C/C=C/C=C/C=C/C=C/C1C` (stereo not drawn) [K99-5278C substance], the zone of inhibition at 10 µg/disc in series [1] was found to be 15 mm; in the series on Candida albicans KF1, 8 mm; in [2], 8 mm; in [3], 9 mm. Besides, the IC50 in series [4] was found to be 16.6 µg/mL (≈ 28.7 µM); with Aspergillus niger KF103, 0.75 µg/mL (≈ 1.3 µM); in the series with Mucor racemosus KF223, 35 µg/mL (≈ 60.5 µM); with Candida albicans KFI, 140 µg/mL (≈ 242 µM). In addition, the Solubility in solvent result in the series “Solubility in solvent” (chloroform) is on record as “slightly soluble”; in “Solubility in solvent” (dimethyl sulfoxide (DMSO)), “soluble”; in the series “Solubility in solvent” (ethyl acetate), “slightly soluble”; in the series “Solubility in solvent” (hexane), “insoluble”; in “Solubility in solvent” (methanol), “soluble”; in “Solubility in solvent” (water) it was “insoluble”.
As to `CC1/C=C/C=C/C=C/C=C/C=C/C(O)CC(O)CC(O)CC(O)CCCC(O)CC(O)C(C)C(=O)OC1C` (stereo not drawn) [K99-5278A substance], the zone of inhibition at 10 µg/disc in series [1] was determined as 18 mm; in the series with Candida albicans KF1 it was 9 mm; in series [2] it was 9 mm; in [3], 12 mm. Besides, the half-inhibitory concentration (IC50) in series [4] worked out at 7.2 µg/mL (≈ 13.4 µM); in the series on Aspergillus niger KF103, 0.32 µg/mL (≈ 0.596 µM); with Mucor racemosus KF223 it was 15 µg/mL (≈ 27.9 µM); in the series on Candida albicans KFI, 61 µg/mL (≈ 114 µM). Moreover, the Solubility in solvent result in the series “Solubility in solvent” (chloroform) was “slightly soluble”; in “Solubility in solvent” (dimethyl sulfoxide (DMSO)), “soluble”; in the series “Solubility in solvent” (ethyl acetate), “slightly soluble”; in “Solubility in solvent” (hexane), “insoluble”; in “Solubility in solvent” (methanol), “soluble”; in “Solubility in solvent” (water) it was “insoluble”.
As for `CCC1OC(=O)C(C)C(O)CC(O)CCCC(O)CC(O)CC(O)C(C)C(O)/C=C/C=C/C=C/C=C/C=C/C1C` (stereo not drawn) [K99-5278B substance], the zone of inhibition at 10 µg/disc in [1] came to 16 mm; in the series on Candida albicans KF1 it was 7 mm; in series [2], 9 mm; in series [3] it was 12 mm. Besides, the IC50 in series [4] worked out at 11.8 µg/mL (≈ 20.9 µM); in the series on Aspergillus niger KF103, 0.53 µg/mL (≈ 0.938 µM); in the series with Mucor racemosus KF223 it was 25 µg/mL (≈ 44.3 µM); with Candida albicans KFI it was 100 µg/mL (≈ 177 µM). The Solubility in solvent entry in “Solubility in solvent” (chloroform) is “insoluble”; in the series “Solubility in solvent” (dimethyl sulfoxide (DMSO)), “soluble”; in the series “Solubility in solvent” (ethyl acetate) it was “insoluble”; in the series “Solubility in solvent” (hexane) it was “insoluble”; in “Solubility in solvent” (methanol) it was “soluble”; in “Solubility in solvent” (water), “insoluble”.

For orientation: zone of inhibition means the extent of the growth-free halo in a diffusion test. The IC50 is the concentration that inhibits the measured activity by half.
